According to US9695155B2, “Herbicidal substituted pyrimidinyloxy benzene compounds” (E. I. DU PONT DE NEMOURS AND COMPANY, priority 2013, dated 2017):

Tests used:
galium = assay: Test D preemergence; type: in vivo, Galium aparine; conditions: Galium, pre-emergence; for pest or weed control at 31 g/ha: 31 g ai/ha; for pest or weed control at 62 g/ha: 62 g ai/ha; for pest or weed control at 125 g/ha: 125 g ai/ha
Excerpt: (§1) Seeds of plant species selected from bluegrass (annual bluegrass, Poa annua), blackgrass (Alopecurus myosuroides), canarygrass (littleseed canarygrass, Phalaris minor), chickweed (common chickweed, Stellaria media), galium (catchweed bedstraw, Galium aparine), bromegrass, downy (downy bromegrass, Bromus tectorum), field poppy (Papaver rhoeas), field violet (Viola arvensis), green foxtail (Setaria viridis), deadnettle (henbit deadnettle, Lamium amplexicaule), Italian ryegrass (Lolium multiflorum), kochia (Kochia scoparia), lambsquarters (Chenopodium album), oilseed rape (Brassica napus), pigweed (Amaranthus retroflexus), chamomile (scentless chamomile, Matricaria inodora), Russian thistle (Salsola kali), speedwell (bird's-eye speedwell, Veronica persica), spring barley (Hordeum vulgare), spring wheat (Triticum aestivum), wild buckwheat (Polygonum convolvulus), wild mustard (Sinapis arvensis), wild oat (Avena fatua), wild radish (Raphanus raphanistrum), windgrass (Apera spica-venti), winter barley (Hordeum vulgare), and winter wheat (Triticum aestivum) were planted into a silt loam soil and treated preemergence with test chemicals formulated in a non-phytotoxic solvent mixture which included a surfactant.
(§2) At the same time, these species were planted in pots containing Redi-Earth® planting medium (Scotts Company, 14111 Scottslawn Road, Marysville, Ohio 43041) comprising spaghnum peat moss, vermiculite, wetting agent and starter nutrients and treated with postemergence applications of the test chemicals formulated in the same manner. Plants ranged in height from 2 to 18 cm (1- to 4-leaf stage). Treated plants and controls were maintained in a controlled growth environment for 7 to 21 days after which time all species were compared to controls and visually evaluated. Plant response ratings, summarized in Table D, are based on a scale of 0 to 100 where 0 is no effect and 100 is complete control. A dash (-) response means no test result.

pigweed [1] = assay: Test D preemergence; type: in vivo, Amaranthus retroflexus; conditions: Amaranthus retroflexus, pre-emergence; for pest or weed control at 31 g/ha: 31 g ai/ha; for pest or weed control at 62 g/ha: 62 g ai/ha; for pest or weed control at 125 g/ha: 125 g ai/ha
Excerpt: as §1, §2

canarygrass = assay: Test D postemergence; type: in vivo, Phalaris minor; conditions: Phalaris minor, post-emergence; for pest or weed control at 31 g/ha: 31 g ai/ha; for pest or weed control at 62 g/ha: 62 g ai/ha; for pest or weed control at 125 g/ha: 125 g ai/ha
Excerpt: as §1, §2

kochia = assay: Test D postemergence; type: in vivo, Kochia scoparia; conditions: Bassia scoparia, post-emergence; for pest or weed control at 31 g/ha: 31 g ai/ha; for pest or weed control at 62 g/ha: 62 g ai/ha; for pest or weed control at 125 g/ha: 125 g ai/ha
Excerpt: as §1, §2

pigweed [2] = assay: Test D postemergence; type: in vivo, Amaranthus retroflexus; conditions: Amaranthus retroflexus, post-emergence; for pest or weed control at 31 g/ha: 31 g ai/ha; for pest or weed control at 62 g/ha: 62 g ai/ha; for pest or weed control at 125 g/ha: 125 g ai/ha
Excerpt: as §1, §2

spring barley = assay: Test D postemergence; type: in vivo, Hordeum vulgare; conditions: Hordeum vulgare, post-emergence, Postemergence, scale 0 to 100 (0 no effect, 100 complete control), read-out: Plant response rating, Barley, Spring; for plant injury at 31 g/ha: 31 g ai/ha; for plant injury at 62 g/ha: 62 g ai/ha; for plant injury at 125 g/ha: 125 g ai/ha
Excerpt: as §1, §2

winter barley = assay: Test D postemergence; type: in vivo, Hordeum vulgare; conditions: Hordeum vulgare, post-emergence, Postemergence, scale 0 to 100 (0 no effect, 100 complete control), read-out: Plant response rating, Barley, Winter; for plant injury at 31 g/ha: 31 g ai/ha; for plant injury at 62 g/ha: 62 g ai/ha; for plant injury at 125 g/ha: 125 g ai/ha
Excerpt: as §1, §2

spring wheat = assay: Test D postemergence; type: in vivo, Triticum aestivum; conditions: Triticum aestivum, post-emergence; for plant injury at 31 g/ha: 31 g ai/ha; for plant injury at 62 g/ha: 62 g ai/ha; for plant injury at 125 g/ha: 125 g ai/ha
Excerpt: as §1, §2

winter wheat = assay: Test D postemergence; type: in vivo, Triticum aestivum; conditions: Triticum aestivum, post-emergence; for plant injury at 31 g/ha: 31 g ai/ha; for plant injury at 62 g/ha: 62 g ai/ha; for plant injury at 125 g/ha: 125 g ai/ha
Excerpt: as §1, §2

windgrass = assay: Test D postemergence; type: in vivo, Apera spica-venti; conditions: Apera spica-venti, post-emergence; for pest or weed control at 31 g/ha: 31 g ai/ha; for pest or weed control at 62 g/ha: 62 g ai/ha; for pest or weed control at 125 g/ha: 125 g ai/ha
Excerpt: as §1, §2

[3] = scale 0-100, read-out: Plant response rating, Galium
[4] = scale 0 (no effect) to 100 (complete control), read-out: Plant response rating, Pigweed
[5] = scale 0-100, read-out: Plant response rating, Pigweed
[6] = scale 0 to 100 (0 no effect, 100 complete control), read-out: Plant response rating, Canarygrass
[7] = scale 0 to 100 (0 no effect, 100 complete control), read-out: Plant response rating, Kochia
[8] = scale 0 to 100 (0 no effect, 100 complete control), read-out: Plant response rating, Pigweed
[9] = scale 0 to 100 (0 no effect, 100 complete control), read-out: Plant response rating, Wheat, Spring
[10] = scale 0 to 100 (0 no effect, 100 complete control), read-out: Plant response rating, Wheat, Winter
[11] = scale 0 to 100 (0 no effect, 100 complete control), read-out: Plant response rating, Windgrass

Structure (SMILES)	pest or weed control at 31 g/ha (galium; [3]) [%]	pest or weed control at 62 g/ha (galium; [3]) [%]	pest or weed control at 125 g/ha (galium; [3]) [%]	pest or weed control at 31 g/ha (pigweed [1]; [4]) [%]	pest or weed control at 62 g/ha (pigweed [1]; [5]) [%]	pest or weed control at 125 g/ha (pigweed [1]; [5]) [%]	pest or weed control at 31 g/ha (canarygrass; [6]) [%]	pest or weed control at 62 g/ha (canarygrass; [6]) [%]	pest or weed control at 125 g/ha (canarygrass; [6]) [%]	pest or weed control at 31 g/ha (kochia; [7]) [%]	pest or weed control at 62 g/ha (kochia; [7]) [%]	pest or weed control at 125 g/ha (kochia; [7]) [%]	pest or weed control at 31 g/ha (pigweed [2]; [8]) [%]	pest or weed control at 62 g/ha (pigweed [2]; [8]) [%]	pest or weed control at 125 g/ha (pigweed [2]; [8]) [%]	plant injury at 31 g/ha (spring barley) [%]	plant injury at 62 g/ha (spring barley) [%]	plant injury at 125 g/ha (spring barley) [%]	plant injury at 31 g/ha (winter barley) [%]	plant injury at 62 g/ha (winter barley) [%]	also measured
N#Cc1cccc(Oc2ncc(Cl)cn2)c1-n1cc(Br)cn1 [Compound 52, 2-(4-bromo-1H-pyrazol-1-yl)-3-[(5-chloro-2-pyrimidinyl)oxy]benzonitrile]	10	20	75	100	100	100	35	35	50	80	90	90	80	85	85	10	15	15	10	10	pest or weed control at 250 g/ha (galium; 250 g ai/ha, scale 0-100, read-out: Plant response rating, Galium): 70%; pest or weed control at 250 g/ha (pigweed [1]; 250 g ai/ha, scale 0-100, read-out: Plant response rating, Pigweed): 100%; pest or weed control at 250 g/ha (canarygrass; 250 g ai/ha, scale 0 to 100 (0 no effect, 100 complete control), read-out: Plant response rating, Canarygrass): 60%; pest or weed control at 250 g/ha (kochia; 250 g ai/ha, scale 0 to 100 (0 no effect, 100 complete control), read-out: Plant response rating, Kochia): 90%; pest or weed control at 250 g/ha (pigweed [2]; 250 g ai/ha, scale 0 to 100 (0 no effect, 100 complete control), read-out: Plant response rating, Pigweed): 95%; plant injury at 250 g/ha (spring barley; 250 g ai/ha): 20%; plant injury at 125 g/ha (winter barley): 15%; plant injury at 250 g/ha (winter barley; 250 g ai/ha): 20%; plant injury at 31 g/ha (spring wheat; [9]): 5%; plant injury at 62 g/ha (spring wheat; [9]): 10%; plant injury at 125 g/ha (spring wheat; [9]): 10%; plant injury at 250 g/ha (spring wheat; 250 g ai/ha, scale 0 to 100 (0 no effect, 100 complete control), read-out: Plant response rating, Wheat, Spring): 15%; plant injury at 31 g/ha (winter wheat; [10]): 10%; plant injury at 62 g/ha (winter wheat; [10]): 15%; plant injury at 125 g/ha (winter wheat; [10]): 20%; plant injury at 250 g/ha (winter wheat; 250 g ai/ha, scale 0 to 100 (0 no effect, 100 complete control), read-out: Plant response rating, Wheat, Winter): 25%; pest or weed control at 31 g/ha (windgrass; [11]): 15%; pest or weed control at 62 g/ha (windgrass; [11]): 20%; pest or weed control at 125 g/ha (windgrass; [11]): 25%; pest or weed control at 250 g/ha (windgrass; 250 g ai/ha, scale 0 to 100 (0 no effect, 100 complete control), read-out: Plant response rating, Windgrass): 40%
Fc1cccc(Oc2ncc(Cl)cn2)c1-n1cc(C(F)F)nn1 [Compound 141, 5-chloro-2-[2-[4-(difluoromethyl)-1H-1,2,3-triazol-1-yl]-3-fluorophenoxy]pyrimidine]	100	100	100	100	100	100	25	35	55	85	100	100	98	100	100	20	25	25	20	25	pest or weed control at 16 g/ha (galium; 16 g ai/ha, scale 0 (no effect) to 100 (complete control), read-out: Plant response rating, Galium): 75%; pest or weed control at 16 g/ha (pigweed [1]; 16 g ai/ha, scale 0 (no effect) to 100 (complete control), read-out: Plant response rating, Pigweed): 98%; pest or weed control at 16 g/ha (canarygrass; 16 g ai/ha, scale 0-100, read-out: Plant response rating, Canarygrass): 10%; pest or weed control at 16 g/ha (kochia; 16 g ai/ha, scale 0-100, read-out: Plant response rating, Kochia): 70%; pest or weed control at 16 g/ha (pigweed [2]; 16 g ai/ha, scale 0-100, read-out: Plant response rating, Pigweed): 98%; plant injury at 16 g/ha (spring barley; 16 g ai/ha): 10%; plant injury at 16 g/ha (winter barley; 16 g ai/ha): 20%; plant injury at 125 g/ha (winter barley): 35%; plant injury at 16 g/ha (spring wheat; 16 g ai/ha, scale 0-100, read-out: Plant response rating, Wheat, Spring): 15%; plant injury at 31 g/ha (spring wheat; [9]): 20%; plant injury at 62 g/ha (spring wheat; [9]): 25%; plant injury at 125 g/ha (spring wheat; [9]): 35%; plant injury at 16 g/ha (winter wheat; 16 g ai/ha, scale 0-100, read-out: Plant response rating, Wheat, Winter): 5%; plant injury at 31 g/ha (winter wheat; [10]): 5%; plant injury at 62 g/ha (winter wheat; [10]): 20%; plant injury at 125 g/ha (winter wheat; [10]): 50%; pest or weed control at 16 g/ha (windgrass; 16 g ai/ha, scale 0-100, read-out: Plant response rating, Windgrass): 5%; pest or weed control at 31 g/ha (windgrass; [11]): 10%; pest or weed control at 62 g/ha (windgrass; [11]): 50%; pest or weed control at 125 g/ha (windgrass; [11]): 60%
